Test results taken from publication PMC5095007, “Liposomal bortezomib is active against chronic myeloid leukemia by disrupting the Sp1-BCR/ABL axis” (Oncotarget, 2016).

Tests used:
[1] = tested on: K562 single tumor cells; assay: Chemosensitization of single tumor cells to doxorubicin, MTT assay; assay type: cell-based; conditions: DOX alone (no BORT), mean ±SD, n=6
Method: To investigate how L-BORT influences tumor cell growth, tumors were harvested from K562 tumor bearing mice and separated into single cells by collagenase. The single tumor cells were then cultured in RPMI1640 medium with 10% FBS and the cell survival was then evaluated in the presence of doxorubicin combined with subtoxic BORT. As shown in Figure 5C and Table 4, a synergistic effect of toxicity to single tumor cells was found between DOX and free BORT, consistent with what we have observed in K562 cells. […] L-BORT, with enhanced BORT delivery, amplified the synergy effect to approximately a 70-fold increase in chemosensitivity (p < 0.05).
K562 cells (10×10^6) were subcutaneously injected into the flank of 4-6 week old NOD/SCID mice (The Jackson Laboratory, Bar Harbor, ME). When the tumor size approached 1000 mm^3, the tumors were harvested from mouse flank and cut into pieces in PBS buffer. Collagenase was added into the above buffer and incubated for 2 hours at 37°C with shaking. The digested tumor cell suspension was filtered through a cell strainer and centrifuged at 1200 rpm for 5 minutes. The separated tumor cells were kept in cell frozen medium and stored in liquid N2 until use. […]

[2] = tested on: K562/DOX cells; assay: Chemosensitization to doxorubicin by subtoxic BORT formulations, MTT/MTS assay; assay type: cell-based; conditions: Homo sapiens, DOX alone (No BORT), mean ±SD, n=6
Method: To determine if L-BORT and Tf-L-BORT could enhance the cytotoxicity of agents used for CML therapy, we employed the MTS assay to evaluate the cytotoxic effects of doxorubicin, alone and in combination with a subtoxic BORT formulation at 2 nM to doxorubicin resistant K562/DOX cells. Initially, we determined the effects of drug treatment sequences on chemosensitivities by treating the K562/DOX cells with 100 nM doxorubicin for 24-hour before, after or simultaneous addition of subtoxic 2 or 10 nM Tf-L-BORTs followed by another 24 hour co-incubation. […] We then applied this treatment strategy to K562/DOX cells exposed to various concentrations of doxorubicin.
To evaluate BORT toxicity, K562 cells were treated by different concentration of free- or L-BORT. Regarding to the chemosensitivity to doxorubicin, the K562/ DOX cells were pre-treated with doxorubicin for 24 hours and then subtoxic BORT formulations were added for additional 24 hours. Cellular viability was assessed by MTT proliferation assays (Promega, Madison, WI).
For the studies, 24-hour treatment. At this point, 20 μL of CellTiter 96®
AQueous One Solution was added to each well and
37 °C for another 1 hour.

[3] = tested on: BCR/ABL protein expression in K562 cells; assay: Western blotting of BCR/ABL and Sp1; assay type: cell-based
Method: Sp1 siRNA, miR-29b and their scrambles were introduced into K562 cells by Lipofectamine™ 2000 (Invitrogen) and the Western blotting was performed as previously described. The antibodies used are: Sp1, DNMT3a, β-actin and ubiquitin (Santa Cruz Biotechnology, Santa Cruz, CA); ABL, phospho-ABL, caspase-3 and caspase-8 (Cell Signaling Technology, Danvers, MA); Parp, CRKL and p-CRKL (Millipore, Billerica, MA).

[4] = tested on: BCR/ABL protein expression in KU812 cells; assay: Western blotting of BCR/ABL and Sp1; assay type: cell-based; conditions: KU812, different doses of BORT for 24 hours
[5] = Pharmacokinetics after tail vein injection, plasma BORT by ICP-OES; conditions: ICR mice, 1.0 mg/kg i.v. tail vein, mean (%CV), n=5
Method: (§1) BORT exposure and elimination in mice were investigated following a tail vein injection of L-BORT at 1.0 mg/kg dose. […] PK parameters were obtained by Non-compartmental PK analysis in Phoenix WinNonlin.
(§2) BORT (1.0 mg/kg) was injected into ICR mice via the tail vein and blood samples were collected at various time points. Plasma was isolated by centrifugation at 1500×g for 10 minutes and stored at −20°C. Concentration of BORT in the plasma was calculated from boron concentration the sample, which was measured by coupled plasma-optical emission spectrometers (ICP-OES). For ICP-OES measurement, the plasma samples were prepared as previously described [28]. Data analysis and PK parameter calculations were carried out in Phoenix® WinNonlin® 6.3 (Certara, Princeton, NJ).

[6] = tested on: K562 cells; assay: Cytotoxicity of BORT formulations, MTT/MTS cell proliferation assay; assay type: cell-based; conditions: mean ±SD, n=6
Method: To evaluate BORT toxicity, K562 cells were treated by different concentration of free- or L-BORT. […] Cellular viability was assessed by MTT proliferation assays (Promega, Madison, WI).

[7] = Toxicity assay in vivo in normal mice; conditions: normal BALB/cByJ mice, 2.5 mg/kg every four days, tail vein; in two weeks
Method: To determine the toxicity in vivo, liposomal vehicle, free or L-BORT was administrated through the tail vein to normal BALB/cByJ mice (6-8 weeks old, 22 ± 5 g) in a small volume (0.2 ml) at normal pressure. The dose used was 2.5 mg/kg every four days.

[8] = in vivo; conditions: ICR, mouse, plasma, iv, 1 mg/kg
Method: as §1, §2

[9] = tested on: imatinib-refractory CML; parameters: method as in PMID 21816374; conditions: pilot clinical trial, imatinib-refractory CML patients; ref [15]; cited from earlier work

SMILES | IC50 ([1]; 48 hours) | IC50 ([1]; Homo sapiens, K562, 48 h) | IC50 [2] | BCR/ABL expression ([3]; K562, various doses, 48 hours) | Sp1 and BCR/ABL protein expression [4] | AUCinf ([5]; 1 mg/kg) | CL ([5]; total body clearance) | V ([5]; volume of distribution) | IC50 ([6]; 48 hours) | IC50 ([6]; Homo sapiens, K562, 48 h) | mice died [7] | AUC(0-inf) [8] | Cmax [8] | clearance [8] | half-life [8] | Sp1 and BCR/ABL protein expression ([3]; K562, different doses of BORT for 24 hours) | clinical efficacy [9] | clinical toxicity [9]
COc1cccc2c1C(=O)c1c(O)c3c(c(O)c1C2=O)C[C@@](O)(C(=O)CO)C[C@@H]3O[C@H]1C[C@H](N)[C@H](O)[C@H](C)O1 [DOX, doxorubicin] | 17.1 ± 0.534 µM | 17 µM | 20.2 ± 8.75 µM | dose-dependently downregulated | – | – | – | – | – | – | – | – | – | – | – | – | – | –
CC(C)C[C@H](NC(=O)[C@H](Cc1ccccc1)NC(=O)c1cnccn1)B(O)O [Free BORT, bortezomib] | – | – | – | – | inhibition of Sp1 and BCR/ABL protein expression | 0.661 (12.8%) μg·hr/mL | 1.51 (17.9%) L/hr/kg | 27.1 (17.6%) L/kg | 0.0393 ± 0.00227 µM | 0.039 µM | 50% | 469 ng·h/mL | 758 ng/mL | 25.2 mL/min/kg | 12.4 h | inhibition of Sp1 and BCR/ABL protein expression | minimal efficacy | considerable toxicity
